Columns and labels:
[1] = system: Human immunodeficiency virus 1; experiment: Selectivity ratio of EC50 for antiviral activity against 3TC-resistant HIV1 selected after 4 passages to EC50 for antiviral activity against wild-type HIV1 3B; format: functional
[2] = system: Human immunodeficiency virus 1; experiment: Antiviral activity against HIV1 infected in SupT1 cells assessed as accumulation of integrated junction products after 48 hrs by Alu-PCR assay; format: functional, organism-based; settings: Human immunodeficiency virus 1, SUP-T1, 48 h
[3] = Cytotoxicity against human SupT1 cells infected with HIV1 3B; format: cell-based, SUP-T1; settings: SupT1 cells infected with HIV-1 3B
[4] = system: Human immunodeficiency virus 1; experiment: Selectivity ratio of EC50 for antiviral activity against GS-9160-resistant HIV1 selected after 6 passages to EC50 for antiviral activity against wild-type HIV1 3B; format: functional
[5] = system: Human immunodeficiency virus 1; experiment: Selectivity ratio of EC50 for antiviral activity against GS-9160-resistant HIV1 selected after 8 passages to EC50 for antiviral activity against wild-type HIV1 3B; format: functional
[6] = system: Human immunodeficiency virus 1; experiment: Selectivity ratio of EC50 for antiviral activity against APV-resistant HIV1 selected after 2 passages to EC50 for antiviral activity against wild-type HIV1 3B; format: functional
[7] = system: Human immunodeficiency virus 1; experiment: Selectivity ratio of EC50 for antiviral activity against APV-resistant HIV1 selected after 4 passages to EC50 for antiviral activity against wild-type HIV1 3B; format: functional
[8] = system: Human immunodeficiency virus 1; experiment: Selectivity ratio of EC50 for antiviral activity against EFV-resistant HIV1 selected after 3 passages to EC50 for antiviral activity against wild-type HIV1 3B; format: functional
[9] = system: Human immunodeficiency virus 1; experiment: Selectivity ratio of EC50 for antiviral activity against EFV-resistant HIV1 selected after 7 passages to EC50 for antiviral activity against wild-type HIV1 3B; format: functional
[10] = system: Human immunodeficiency virus 1; experiment: Selectivity ratio of EC50 for antiviral activity against GS-9160-resistant HIV1 selected after 9 passages to EC50 for antiviral activity against wild-type HIV1 3B; format: functional
[11] = system: Human immunodeficiency virus 1; experiment: Selectivity ratio of EC50 for antiviral activity against GS-9160-resistant HIV1 selected after 5 passages to EC50 for antiviral activity against wild-type HIV1 3B; format: functional
[12] = system: Human immunodeficiency virus 1; experiment: Antiviral activity against HIV1 infected in SupT1 cells assessed as accumulation of late RT products after 12 hrs; format: functional, organism-based; settings: Human immunodeficiency virus 1, SUP-T1, 12 h
[13] = system: Human immunodeficiency virus 1; experiment: Selectivity ratio of EC50 for antiviral activity against 3TC-resistant HIV1 selected after 8 passages to EC50 for antiviral activity against wild-type HIV1 3B; format: functional
[14] = Cytotoxicity against human MT4 cells infected with HIV1 3B by three fold dilution method in presence of 10% FBS; format: cell-based; settings: MT4 cells infected with HIV-1 3B
[15] = system: Human immunodeficiency virus 1; experiment: Antiviral activity against HIV1 3B infected in human MT-2 cells by two fold dilution method in presence of 10% FBS; format: functional, organism-based; settings: Human immunodeficiency virus 1, 3B, MT2
[16] = Cytotoxicity against human uninfected MT2 cells by three fold dilution method in presence of 10% FBS
[17] = system: Human immunodeficiency virus 1; experiment: Antiviral activity against HIV1 3B infected in human MT-4 cells by two fold dilution method in presence of 10% FBS; format: functional, organism-based; settings: Human immunodeficiency virus 1, 3B, MT4
[18] = system: Human immunodeficiency virus 1; experiment: Antiviral activity against HIV1 3B infected in human MT-2 cells by two fold dilution method in presence of 10% FBS, HSA and alpha1-AGP; format: functional, organism-based; settings: Human immunodeficiency virus 1, 3B, MT2
[19] = system: Human immunodeficiency virus 1; experiment: Selectivity ratio of EC50 for antiviral activity against HIV1 harboring E92V, G140S and V151A mutation in catalytic core domain of integrase to EC50 for antiviral activity against wild-type HIV1 3B; format: functional
[20] = system: Human immunodeficiency virus 1; experiment: Selectivity ratio of EC50 for antiviral activity against HIV1 harboring E92V mutation in catalytic core domain of integrase to EC50 for antiviral activity against wild-type HIV1 3B; format: functional
[21] = system: Human immunodeficiency virus 1; experiment: Selectivity ratio of EC50 for antiviral activity against HIV1 harboring N155H mutation in catalytic core domain of integrase to EC50 for antiviral activity against wild-type HIV1 3B; format: functional
[22] = system: Human immunodeficiency virus 1; experiment: Selectivity ratio of EC50 for antiviral activity against NNRTI-resistant HIV1 harboring RTK103N mutant gene to EC50 for antiviral activity against wild-type HIV1 3B; format: functional
[23] = system: Human immunodeficiency virus 1; experiment: Selectivity ratio of EC50 for antiviral activity against HIV1 harboring E138K and Q148K mutation in catalytic core domain of integrase to EC50 for antiviral activity against wild-type HIV1 3B; format: functional
[24] = system: Human immunodeficiency virus 1; experiment: Selectivity ratio of EC50 for antiviral activity against HIV1 harboring E138K mutation in catalytic core domain of integrase to EC50 for antiviral activity against wild-type HIV1 3B; format: functional
[25] = system: Human immunodeficiency virus 1; experiment: Selectivity ratio of EC50 for antiviral activity against HIV1 harboring N155S mutation in catalytic core domain of integrase to EC50 for antiviral activity against wild-type HIV1 3B; format: functional
[26] = system: Human immunodeficiency virus 1; experiment: Selectivity ratio of EC50 for antiviral activity against HIV1 harboring V151A mutation in catalytic core domain of integrase to EC50 for antiviral activity against wild-type HIV1 3B; format: functional
[27] = system: Human immunodeficiency virus 1; experiment: Selectivity ratio of EC50 for antiviral activity against NRTI-resistant HIV1 harboring RTK65R mutant gene to EC50 for antiviral activity against wild-type HIV1 3B; format: functional
[28] = system: Human immunodeficiency virus 1; experiment: Selectivity ratio of EC50 for antiviral activity against NRTI-resistant HIV1 harboring RTM184V mutant gene to EC50 for antiviral activity against wild-type HIV1 3B; format: functional
[29] = system: Human immunodeficiency virus 1; experiment: Selectivity ratio of EC50 for antiviral activity against HIV1 harboring Q148K mutation in catalytic core domain of integrase to EC50 for antiviral activity against wild-type HIV1 3B; format: functional
[30] = system: Human immunodeficiency virus 1; experiment: Selectivity ratio of EC50 for antiviral activity against HIV1 harboring G140S and Q148H mutation in catalytic core domain of integrase to EC50 for antiviral activity against wild-type HIV1 3B; format: functional
[31] = system: Human immunodeficiency virus 1; experiment: Selectivity ratio of EC50 for antiviral activity against PI-resistant HIV1 harboring […], L90M mutant gene to EC50 for antiviral activity against wild-type HIV1 3B; format: functional
[32] = system: Human immunodeficiency virus 1; experiment: Selectivity ratio of EC50 for antiviral activity against HIV1 harboring L74M mutation in catalytic core domain of integrase to EC50 for antiviral activity against wild-type HIV1 3B; format: functional
[33] = system: Human immunodeficiency virus 1; experiment: Selectivity ratio of EC50 for antiviral activity against HIV1 harboring L74M and E92V mutation in catalytic core domain of integrase to EC50 for antiviral activity against wild-type HIV1 3B; format: functional
[34] = system: Human immunodeficiency virus 1; experiment: Selectivity ratio of EC50 for antiviral activity against NNRTI-resistant HIV1 harboring RTY181C mutant gene to EC50 for antiviral activity against wild-type HIV1 3B; format: functional
[35] = system: Human immunodeficiency virus 1; experiment: Selectivity ratio of EC50 for antiviral activity against HIV1 harboring E92Q mutation in catalytic core domain of integrase to EC50 for antiviral activity against wild-type HIV1 3B; format: functional
[36] = system: Human immunodeficiency virus 1; experiment: Selectivity ratio of EC50 for antiviral activity against NRTI-resistant HIV1 harboring RT-6TAMs mutant gene to EC50 for antiviral activity against wild-type HIV1 3B; format: functional
[37] = system: Human immunodeficiency virus 1; experiment: Selectivity ratio of EC50 for antiviral activity against PI-resistant HIV1 harboring […], V82A and L90M mutant gene to EC50 for antiviral activity against wild-type HIV1 3B; format: functional
[38] = system: Human immunodeficiency virus 1; experiment: Selectivity ratio of EC50 for antiviral activity against HIV1 harboring G140S mutation in catalytic core domain of integrase to EC50 for antiviral activity against wild-type HIV1 3B; format: functional
[39] = system: Human immunodeficiency virus 1; experiment: Selectivity ratio of EC50 for antiviral activity against HIV1 harboring E92V and V151A mutation in catalytic core domain of integrase to EC50 for antiviral activity against wild-type HIV1 3B; format: functional
[40] = system: Human immunodeficiency virus 1; experiment: Selectivity ratio of EC50 for antiviral activity against HIV1 harboring T66I mutation in catalytic core domain of integrase to EC50 for antiviral activity against wild-type HIV1 3B; format: functional

SMILES | EC50 [15] [µM] | Ratio EC50 [19] | Ratio EC50 [20] | Ratio EC50 [21] | Ratio EC50 [22] | Ratio EC50 [23] | Ratio EC50 [24] | Ratio EC50 [25] | Ratio EC50 [26] | Ratio EC50 [27] | Ratio EC50 [28] | Ratio EC50 [29] | Ratio EC50 [30] | Ratio EC50 [31] | Ratio EC50 [32] | Ratio EC50 [33] | Ratio EC50 [34] | Ratio EC50 [35] | Ratio EC50 [36] | Ratio EC50 [37] | also measured
CC(C)CN(C[C@@H](O)[C@H](Cc1ccccc1)NC(=O)O[C@H]1CCOC1)S(=O)(=O)c1ccc(N)cc1 |  |  |  |  |  |  |  |  |  |  |  |  |  |  |  |  |  |  |  |  | Ratio EC50 [1]: 1.6; EC50 [2]: > 1 µM; CC50 [3]: 96 µM; Ratio EC50 [4]: 1.5; Ratio EC50 [5]: 4; Ratio EC50 [6]: 3.4; Ratio EC50 [7]: 8.7; Ratio EC50 [8]: 1.2; Ratio EC50 [9]: 1.6; Ratio EC50 [10]: 1.5; Ratio EC50 [11]: 1; EC50 [12]: > 1 µM; Ratio EC50 [13]: 0.9
Cc1nnc(C(=O)NC(C)(C)c2nc(C(=O)NCc3ccc(F)cc3)c(O)c(=O)n2C)o1 | 0.003 |  |  |  |  |  |  |  |  |  |  |  |  |  |  |  |  |  |  |  | CC50 [14]: 58.2 µM; CC50 [16]: > 100 µM; EC50 [17]: 0.008 µM; EC50 [18]: 0.018 µM
CC(C)c1nc(COC(N)=O)n(Cc2ccncc2)c1Sc1cc(Cl)cc(Cl)c1 [CAPRAVIRINE] | 0.0002 | 3 | 3 | 6 | 0 | 3 | 3 | 6 | 4 | 0.4 | 1 | 1 | 0.2 | 1 | 1 | 3 | 89 | 1 | 762 | 1 | Ratio EC50 [38]: 2; Ratio EC50 [39]: 2; Ratio EC50 [40]: 2
O=C1Nc2ccc(Cl)cc2[C@@](C#CC2CC2)(C(F)(F)F)O1 [EFAVIRENZ] | 0.0068 |  |  |  |  |  |  |  |  |  |  |  |  |  |  |  |  |  |  |  | CC50 [3]: 15.5 µM
Nc1nc(=O)n([C@@H]2CS[C@H](CO)O2)cc1F [EMTRICITABINE] | 0.323 | 2 | 1 | 2 | 1 | 2 | 1 | 3 | 3 | 26 | >55 | 2 | 0.8 | 1 | 1 | 2 | 0.4 | 2 | 23 | 1 | Ratio EC50 [38]: 1; Ratio EC50 [39]: 4; Ratio EC50 [40]: 1
Nc1ccn([C@@H]2CS[C@H](CO)O2)c(=O)n1 [LAMIVUDINE] |  |  |  |  |  |  |  |  |  |  |  |  |  |  |  |  |  |  |  |  | Ratio EC50 [1]: >272; Ratio EC50 [4]: 4.5; Ratio EC50 [5]: 5.7; Ratio EC50 [6]: 7; Ratio EC50 [7]: 9; Ratio EC50 [8]: 2; Ratio EC50 [9]: 1; Ratio EC50 [10]: 1.4; Ratio EC50 [11]: 1.8; Ratio EC50 [13]: >272
Cc1cccc(C)c1OCC(=O)N[C@@H](Cc1ccccc1)[C@@H](O)C[C@H](Cc1ccccc1)NC(=O)[C@H](C(C)C)N1CCCNC1=O [LOPINAVIR] | 0.0048 | 2 | 1 | 2 | 1 | 1 | 1 | 2 | 1 | 3 | 3 | 1 | 1 | 29 | 1 | 1 | 1 | 1 | 5 | 9 | Ratio EC50 [38]: 1; Ratio EC50 [39]: 1; Ratio EC50 [40]: 4
CC(C)OC(=O)OCOP(=O)(CO[C@H](C)Cn1cnc2c(N)ncnc21)OCOC(=O)OC(C)C.O=C(O)/C=C/C(=O)O [TENOFOVIR DISOPROXIL FUMARATE] | 0.0068 | 2 | 2 | 2 | 1 | 2 | 2 | 2 | 2 | 4 | 1 | 1 | 0.3 | 1 | 1 | 1 | 1 | 1 | 9 | 1 | Ratio EC50 [38]: 1; Ratio EC50 [39]: 2; Ratio EC50 [40]: 1

Source: ChEMBL document CHEMBL1629647, “Preclinical evaluation of GS-9160, a novel inhibitor of human immunodeficiency virus type 1 integrase” (Antimicrob Agents Chemother, 2009)
